Values after ≈ are worked out from the molar mass of the structure shown. Like-named read-outs stand apart in the source and are kept apart here.
Tests used:
22RV1 cells = assay: Cell viability (AlamarBlue), 22RV1 prostate cancer cells; type: cell-based, human; conditions: 72 hours of treatment
How it was run: (§1)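 Following a 72-hour incubation with escalating compound doses, applied one day after seeding, AlamarBlue fluorescence gave viability relative to untreated cells, from which half-maximal effective concentrations were calculated.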

LNCaP cells = assay: Cell viability (AlamarBlue), LNCaP prostate cancer cells; type: cell-based, human; conditions: 72 hours of treatment
How it was run: as §1

MCF7 cells = assay: Cell viability (AlamarBlue), MCF7 breast cancer cells; type: cell-based; conditions: Homo sapiens, 72 hours of treatment
Experimental: (§2) In another exemplary method, half maximal effective concentration (EC50) was determined for some compounds and their isomers as disclosed herein in a variety of human cancer cell lines. In brief, cells from two prostate cancer cell lines (LNCaP, 22RV1), one glioblastoma cell line (U87), one breast cancer cell line (MCF7), a glioma cell line (LN18), a normal prostate cell line (RWPE1), and a glioblastoma cell line (T98G) were plated in a multi-well plate. After 24 hours, one of the compounds herein was added to the well at increasing concentrations. After 72 hours of treatment, cell viability was assessed using AlamrBlue® (Invitrogen) and fluorescence was read using the CLARIOstar Plus Multilabel Plate Reader (BMG Labtech). Samples were normalized to no treatment controls. EC50 values were determined using GraphPad Prism.

RWPE1 cells = assay: Cell viability (AlamarBlue), RWPE1 normal prostate cells; type: cell-based, human; design: key to EC50 (μM) in RWPE1 cells: Inactive: less than 50% inhibition at the highest concentration tested at 50 μM; conditions: normal prostate cell line; for EC50 (μM) in RWPE1 cells: 72 hours of treatment
Experimental: as §2

U87 cells = assay: Cell viability (AlamarBlue), U87 glioblastoma cells; type: cell-based, human; design: key to EC50 (μM) in U87 cells: Inactive: less than 50% inhibition at the highest concentration tested at 50 μM; conditions: 72 hours of treatment
How it was run: as §1

[1] = Kinetic solubility in aqueous PBS buffer (HPLC-MS); type: physicochemical; conditions: kinetic from dmso stock
Experimental: In another exemplary method, central nervous system multiparameter optimization (CNS MPO) score and kinetic solubility of selected compounds was determined. CNS MPO score for compounds and their isomers disclosed herein were calculated using an algorithm that uses a weighted scoring function assessing 6 key physicochemical properties (clogP, clogD, MW, TPSA, HBD, and pKa) for blood-brain-barrier (BBB penetration). CNS MPO score ranged from 0 and 6.0 with scores≥4.0 used as a cut-off to select compounds that can have a high probability of accumulating in the CNS. Kinetic solubility of a compound is the maximum solubility of the fastest precipitating species of the compound. Kinetic solubility was determined by preparing a concentrated stock solution for compounds and their isomers disclosed herein in an organic solvent (DMSO), after which the solution was mixed with an aqueous PBS buffer and then filtered. Filtrate was tested to quantify the kinetic solubilty using HPLC-MS calibration curve. The CNS MPO Score and kinetic solubility of the compounds tested are provided in Table 7 where “ND” means not determined.

cancer cell = assay: Cancer cell viability, cell line not stated (per-compound ranges in description); type: cell-based; conditions: 'In some embodiments', values worded 'about', read-out: EC50 in cancer cell viability (range stated in description)
Experimental: as §2

[2] = DMSO stock mixed with aqueous PBS buffer, filtered, read-out: Kinetic Solubility
[3] = 'In some embodiments', values worded 'about', read-out: kinetic solubility (range stated in description)

SMILES	EC50 (22RV1 cells; Homo sapiens, 22Rv1, 72 h)	EC50 (LNCaP cells; Homo sapiens, LNCaP, 72 h)	EC50 (MCF7 cells)	EC50 (μM) in RWPE1 cells (RWPE1 cells)	EC50 (U87 cells; Homo sapiens, U-87 MG, 72 h)	other results
COC1CCC(C(=O)NC(=O)Nc2ccc(Oc3ncccn3)c(F)c2)CC1 (centres unmarked) [Compound 13, 3-[3-fluoro-4-(pyrimidin-2-yloxy)phenyl]-1-(4-methoxycyclohexanecarbonyl)urea]	14.1 µM	17.4 µM	11.3 µM	–	–	–
Cc1cc(NC(=O)NC(=O)C2CCCCC2)ccc1Oc1ncc(Cl)cn1 [Compound 71, N-((4-((5-chloropyrimidin-2-yl)oxy)-3-methylphenyl)carbamoyl)cyclohexanecarboxamide]	12.5 µM	10.4 µM	9.4 µM	Inactive	–	EC50 (μM) in U87 cells (U87 cells): Inactive
COC1CCC(C(=O)NC(=O)Nc2ccc(Oc3ncc(F)cn3)c(C)c2)CC1 (centres unmarked) [Compound 8, 3-{4-[(5-fluoropyrimidin-2-yl)oxy]-3-methylphenyl}-1-(4-methoxycyclohexanecarbonyl)urea]	26 µM	27.5 µM	24.3 µM	Inactive	36 µM	–
COC1CCC(C(=O)NC(=O)Nc2ccc(Oc3ccc(Cl)cn3)c(F)c2)CC1 (centres unmarked) [Compound 12, N-((4-((5-chloropyridin-2-yl)oxy)-3-fluorophenyl)carbamoyl)-4-methoxycyclohexane-1-carboxamide]	1.9 µM	3.1 µM	1.9 µM	–	1.9 µM	solubility kinetic [1, 2]: 0.28 µM (≈ 0.118 µg/mL); EC50 (RWPE1 cells; Homo sapiens, RWPE-1, 72 hours of treatment): 6.1 µM
Cc1cc(NC(=O)NC(=O)C2COC2)ccc1Oc1ncc(Cl)cn1 [Compound 2, 1-{4-[(5-chloropyrimidin-2-yl)oxy]-3-methylphenyl}-3-(oxetane-3-carbonyl)urea]	41 µM	19 µM	20.9 µM	–	–	–
COC1CCC(C(=O)NC(=O)Nc2ccc(Oc3ncccn3)c(C)c2)CC1 (centres unmarked) [Compound 10, 1-(4-methoxycyclohexanecarbonyl)-3-[3-methyl-4-(pyrimidin-2-yloxy)phenyl]urea]	12.5 µM	13 µM	12.9 µM	Inactive	33.5 µM	–
COC1CC(C(=O)NC(=O)Nc2ccc(Oc3ccc(F)cn3)c(C)c2)C1 (single isomer, unassigned) [Compound 15A, N-((4-((5-fluoropyridin-2-yl)oxy)-3-methylphenyl)carbamoyl)-3-methoxycyclobutanecarboxamide]	–	–	11.5 µM	Inactive	–	EC50 (22RV1 cells): 4.1 µM; EC50 (LNCaP cells): 1.6 µM; EC50 (U87 cells): 5.5 µM
COC1CC(C(=O)NC(=O)Nc2ccc(Oc3ncc(C)s3)c(C)c2)C1 (centres unmarked) [Compound 60, 3-methoxy-N-((3-methyl-4-((5-methylthiazol-2-yl)oxy)phenyl)carbamoyl)cyclobutane-1-carboxamide]	1.2 µM	0.88 µM	0.6 µM	–	0.32 µM	–
COC1CCC(C(=O)NC(=O)Nc2ccc(Oc3ccc(F)cn3)c(C)c2)CC1 (centres unmarked) [Compound 9, 3-{4-[(5-fluoropyridin-2-yl)oxy]-3-methylphenyl}-1-(4-methoxycyclohexanecarbonyl)urea]	5.1 µM	11.5 µM	8.5 µM	Inactive	4.9 µM	–
COC1CC(C(=O)NC(=O)Nc2ccc(Oc3cnc(N4CCOCC4)nc3)c(C)c2)C1 (centres unmarked) [Compound 44, 3-methoxy-N-((3-methyl-4-((2-morpholinopyrimidin-5-yl)oxy)phenyl)carbamoyl)cyclobutane-1-carboxamide]	17.8 µM	6.3 µM	2.5 µM	–	22 µM	solubility kinetic [1, 2]: 0.95 µM (≈ 0.419 µg/mL)
COC1CCC(C(=O)NC(=O)Nc2ccc(Oc3ncc(Cl)cn3)c(C)c2)CC1 (centres unmarked) [Compound 1, N-((4-((5-chloropyrimidin-2-yl)oxy)-3-methylphenyl)carbamoyl)-4-methoxycyclohexane-1-carboxamide]	3.7 µM	2.4 µM	3.4 µM	Inactive	6 µM	solubility kinetic [1, 2]: 4.9 µM (≈ 2.05 µg/mL)
COC1CC(C(=O)NC(=O)Nc2ccc(C)c(Oc3ccccn3)c2)C1 (centres unmarked) [drawing 280, 3-methoxy-N-((4-methyl-3-(pyridin-2-yloxy)phenyl)carbamoyl)cyclobutane-1-carboxamide]	–	–	–	–	–	solubility kinetic [1, 3]: 10 to 14 µM (≈ 3.55 to 4.98 µg/mL); EC50 (cancer cell): 0.002 to 0.007 µM
COC1CC(C(=O)NC(=O)Nc2ccc(Oc3ccc(C#N)cn3)c(C)c2)C1 (single isomer, unassigned) [Compound 16A, N-((4-((5-cyanopyridin-2-yl)oxy)-3-methylphenyl)carbamoyl)-3-methoxycyclobutane-1-carboxamide]	–	2.9 µM	12.7 µM	Inactive	–	EC50 (22RV1 cells): 5.8 µM; EC50 (U87 cells): 10 µM
COC1CCC(C(=O)NC(=O)Nc2ccc(Oc3ccc(Cl)cn3)c(C)c2)CC1 (centres unmarked) [Compound 7, N-((4-((5-chloropyridin-2-yl)oxy)-3-methylphenyl)carbamoyl)-4-methoxycyclohexane-1-carboxamide]	2.9 µM	2.8 µM	2.4 µM	Inactive	4.4 µM	solubility kinetic [1, 2]: 0.49 µM (≈ 0.205 µg/mL)
COC1CC(C(=O)NC(=O)Nc2ccc(Oc3ncc(Cl)cn3)c(C)c2)C1 (single isomer, unassigned) [Compound 20A, N-((4-((5-chloropyrimidin-2-yl)oxy)-3-methylphenyl)carbamoyl)-3-methoxycyclobutane-1-carboxamide]	–	–	5.8 µM	Inactive	–	EC50 (22RV1 cells): 1.5 µM; EC50 (LNCaP cells): 0.87 µM; EC50 (U87 cells): 2.6 µM
COC12CC(C(=O)NC(=O)Nc3ccc(Oc4ncc(Cl)cn4)c(C)c3)(C1)C2 [drawing 272, N-((4-((5-chloropyrimidin-2-yl)oxy)-3-methylphenyl)carbamoyl)-3-methoxybicyclo[1.1.1]pentane-1-carboxamide]	–	–	–	–	–	solubility kinetic [1, 3]: 1.5 to 3.5 µM (≈ 0.604 to 1.41 µg/mL); EC50 (cancer cell): 0.04 to 0.08 µM
COC12CC(C(=O)NC(=O)Nc3ccc(Oc4ncc(F)cn4)c(C)c3)(C1)C2 [drawing 275, N-((4-((5-fluoropyrimidin-2-yl)oxy)-3-methylphenyl)carbamoyl)-3-methoxybicyclo[1.1.1]pentane-1-carboxamide]	–	–	–	–	–	solubility kinetic [1, 3]: 85 to 91 µM (≈ 32.8 to 35.2 µg/mL); EC50 (cancer cell): 0.5 to 4 µM

— patent US12404242B2, “Compositions and methods for making and using small molecules in the treatment of cancer” (Reglagene, Inc., priority 2021, dated 2025)
